Square brackets hold non-standard residues; d marks the D form. Peptide text beside a SMILES is read from it. * marks the point of attachment. Dolaproine = CO[C@@H]([C@@H]1CCCN1)[C@@H](C)C(=O)O; Dil = CC[C@H](C)[C@H](NC)[C@@H](CC(=O)O)OC; NMe2Val = CC(C)[C@@H](C(=O)*)N(C)C; NH(3-hydroxypropyl) = OCCCN*
Test: Plasma PK profile in patients dosed with XMT-1536
Format: in vivo, human
Conditions: after XMT-1536
Method: The PK profile of the active ingredient of XMT-1536, its release product and selected metabolites are determined for each patient by non-compartmental analysis using standard PK software (e.g., Phoenix WinNonlin). PK parameters per patient include time of maximum observed concentration (tmax), maximum concentration (Cmax), and area under the concentration curve for the last measurable concentration (AUC0-last). When the terminal elimination phase is identified, additional parameters such as elimination half-life, clearance, and volume of distribution are determined.
The plasma PK profile for the analytes (total antibody; conjugated drug (AF-HPA); free drug (AF-HPA) and the drug metabolite auristatin F (AF)) was determined in blood samples from 30 patients (3 mg/m^2, n=1; 6 mg/m^2, n=1; 12 mg/m^2, n=7; 20 mg/m^2, n=15; 30 mg/m^2, n=5; 40 mg/m^2, n=1). […] The PK characteristics is consistent with that reported for other approved antibody-drug conjugates or those currently in clinical development.

Compound	accumulation after administration of multiple doses	systemic exposure compared to that of the conjugated drug
CC[C@H](C)[C@@H]([C@@H](CC(=O)N1CCC[C@H]1[C@H](OC)[C@@H](C)C(=O)N[C@@H](Cc1ccccc1)C(=O)NCCCO)OC)N(C)C(=O)[C@@H](NC(=O)[C@H](C(C)C)N(C)C)C(C)C [AF-HPA, Auristatin F-hydroxypropyl amide] (NMe2Val-V[Dil][Dolaproine]F-{NH(3-hydroxypropyl)})	no accumulation	low systemic expose
CC[C@H](C)[C@@H]([C@@H](CC(=O)N1CCC[C@H]1[C@H](OC)[C@@H](C)C(=O)N[C@@H](Cc1ccccc1)C(=O)O)OC)N(C)C(=O)[C@@H](NC(=O)[C@H](C(C)C)N(C)C)C(C)C [AF, auristatin F] (NMe2Val-V[Dil][Dolaproine]F-OH)	no accumulation	low systemic expose
